Experimental data as given in the kinase profiling compilation of Christmann-Franck et al. (2016).
Where “and” joins values, the source holds several entries; their conditions need not be identical. Equal entries are not always repeated.

Tests used:
Assay in all cases: KINOMEscan competition binding
Settings in all cases: compound 1.0 µM
MAP3K15 (human) = MAP3K15 (human) (UniProt Q6ZN16)
ERBB4 (human) = ERBB4 (human) (UniProt Q15303)
FLT3 (human) = FLT3 (human) (UniProt P36888)
HIPK4 (human) = HIPK4 (human) (UniProt Q8NE63)
MAP2K5 (human) = MAP2K5 (human) (UniProt Q13163)
[1] = tested on: FLT3 (human), P36888 [R834Q]
ERN1 (human) = ERN1 (human) (UniProt O75460)
MAP3K13 (human) = MAP3K13 (human) (UniProt O43283)
CDK16 (human) = CDK16 (human) (UniProt Q00536)
[2] = tested on: RET (human), P07949 [M918T]
PAK2 (human) = PAK2 (human) (UniProt Q13177)
CDKL2 (human) = CDKL2 (human) (UniProt Q92772)
PRKAA1 (human) = PRKAA1 (human) (UniProt Q13131)
STK17A (human) = STK17A (human) (UniProt Q9UEE5)
MAP3K3 (human) = MAP3K3 (human) (UniProt Q99759)
AKT1 (human) = AKT1 (human) (UniProt P31749)
[3] = biological target: TYK2 JH1 catalytic (human) (UniProt P29597)
[4] = tested on: ABL1 (human), P00519 [M351T]
PKN2 (human) = PKN2 (human) (UniProt Q16513)
PRKD3 (human) = PRKD3 (human) (UniProt O94806)
MAP2K6 (human) = MAP2K6 (human) (UniProt P52564)
STK38L (human) = STK38L (human) (UniProt Q9Y2H1)
[5] = tested on: FLT3 (human), P36888 [D835H]
CSK (human) = CSK (human) (UniProt P41240)
MET (human) = MET (human) (UniProt P08581)
ADCK3 (human) = ADCK3 (human) (UniProt Q8NI60)
LATS1 (human) = LATS1 (human) (UniProt O95835)
NUAK2 (human) = NUAK2 (human) (UniProt Q9H093)
BLK (human) = BLK (human) (UniProt P51451)
CDK5 (human) = CDK5 (human) (UniProt Q00535)
CSNK1G3 (human) = CSNK1G3 (human) (UniProt Q9Y6M4)
[6] = tested on: KIT (human), P10721 [V559D/V654A]
CDK2 (human) = CDK2 (human) (UniProt P24941)
INSR (human) = INSR (human) (UniProt P06213)
TRPM6 (human) = TRPM6 (human) (UniProt Q9BX84)
DCLK1 (human) = DCLK1 (human) (UniProt O15075)
PI4KB (human) = PI4KB (human) (UniProt Q9UBF8)
PIP4K2C (human) = PIP4K2C (human) (UniProt Q8TBX8)
LATS2 (human) = LATS2 (human) (UniProt Q9NRM7)

PAK2 (human), sequence (Q13177 whole entry, looked up): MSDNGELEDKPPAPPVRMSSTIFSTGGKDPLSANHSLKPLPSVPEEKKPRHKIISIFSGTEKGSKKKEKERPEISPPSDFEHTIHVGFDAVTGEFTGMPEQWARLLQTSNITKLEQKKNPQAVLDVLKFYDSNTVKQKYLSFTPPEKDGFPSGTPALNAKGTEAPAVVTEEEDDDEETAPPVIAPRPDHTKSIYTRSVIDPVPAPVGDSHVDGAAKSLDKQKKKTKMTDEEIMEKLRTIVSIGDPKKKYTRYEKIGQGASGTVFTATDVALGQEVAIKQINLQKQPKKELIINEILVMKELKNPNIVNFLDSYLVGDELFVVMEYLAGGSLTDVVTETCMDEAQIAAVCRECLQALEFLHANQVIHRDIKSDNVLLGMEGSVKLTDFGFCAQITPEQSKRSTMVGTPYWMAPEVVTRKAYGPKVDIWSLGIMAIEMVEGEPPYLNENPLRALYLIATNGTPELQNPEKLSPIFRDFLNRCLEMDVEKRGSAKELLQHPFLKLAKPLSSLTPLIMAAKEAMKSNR
HIPK4 (human), sequence (Q8NE63 whole entry, looked up): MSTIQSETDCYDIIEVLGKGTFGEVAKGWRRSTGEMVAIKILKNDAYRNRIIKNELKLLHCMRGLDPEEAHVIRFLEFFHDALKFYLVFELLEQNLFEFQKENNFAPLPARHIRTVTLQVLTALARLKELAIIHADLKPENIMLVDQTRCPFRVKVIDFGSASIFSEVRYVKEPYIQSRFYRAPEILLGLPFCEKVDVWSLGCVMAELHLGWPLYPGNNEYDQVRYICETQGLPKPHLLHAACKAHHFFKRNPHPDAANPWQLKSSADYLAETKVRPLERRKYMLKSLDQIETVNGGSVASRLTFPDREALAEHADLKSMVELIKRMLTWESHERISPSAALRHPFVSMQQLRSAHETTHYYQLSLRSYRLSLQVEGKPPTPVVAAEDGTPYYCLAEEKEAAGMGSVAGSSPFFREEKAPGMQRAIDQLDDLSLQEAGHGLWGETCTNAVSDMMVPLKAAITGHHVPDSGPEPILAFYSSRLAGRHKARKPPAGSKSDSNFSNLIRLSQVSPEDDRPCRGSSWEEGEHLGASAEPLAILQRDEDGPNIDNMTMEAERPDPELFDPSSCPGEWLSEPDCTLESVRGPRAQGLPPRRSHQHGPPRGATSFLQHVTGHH
PI4KB (human), sequence (Q9UBF8 whole entry, looked up): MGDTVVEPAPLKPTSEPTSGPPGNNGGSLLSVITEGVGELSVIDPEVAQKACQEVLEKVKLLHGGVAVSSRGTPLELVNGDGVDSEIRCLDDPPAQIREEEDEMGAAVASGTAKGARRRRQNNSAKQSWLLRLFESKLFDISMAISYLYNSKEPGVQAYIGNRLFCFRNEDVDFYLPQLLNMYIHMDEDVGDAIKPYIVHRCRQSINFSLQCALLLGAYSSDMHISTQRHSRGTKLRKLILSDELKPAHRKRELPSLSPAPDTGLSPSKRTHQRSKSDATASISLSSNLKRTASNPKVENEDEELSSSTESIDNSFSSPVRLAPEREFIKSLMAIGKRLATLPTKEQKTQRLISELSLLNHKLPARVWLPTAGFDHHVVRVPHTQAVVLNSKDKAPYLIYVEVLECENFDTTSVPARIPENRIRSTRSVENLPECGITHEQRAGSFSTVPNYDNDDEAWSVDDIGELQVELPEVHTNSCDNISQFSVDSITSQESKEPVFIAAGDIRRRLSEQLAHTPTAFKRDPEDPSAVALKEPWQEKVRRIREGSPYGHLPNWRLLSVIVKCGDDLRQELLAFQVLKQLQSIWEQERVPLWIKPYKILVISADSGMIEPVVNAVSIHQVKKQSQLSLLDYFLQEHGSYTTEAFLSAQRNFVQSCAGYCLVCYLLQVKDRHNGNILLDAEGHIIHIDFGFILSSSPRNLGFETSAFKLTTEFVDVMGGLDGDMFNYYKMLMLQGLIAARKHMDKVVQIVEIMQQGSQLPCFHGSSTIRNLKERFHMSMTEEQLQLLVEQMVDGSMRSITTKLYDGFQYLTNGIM
AKT1 (human), sequence (P31749 whole entry, looked up): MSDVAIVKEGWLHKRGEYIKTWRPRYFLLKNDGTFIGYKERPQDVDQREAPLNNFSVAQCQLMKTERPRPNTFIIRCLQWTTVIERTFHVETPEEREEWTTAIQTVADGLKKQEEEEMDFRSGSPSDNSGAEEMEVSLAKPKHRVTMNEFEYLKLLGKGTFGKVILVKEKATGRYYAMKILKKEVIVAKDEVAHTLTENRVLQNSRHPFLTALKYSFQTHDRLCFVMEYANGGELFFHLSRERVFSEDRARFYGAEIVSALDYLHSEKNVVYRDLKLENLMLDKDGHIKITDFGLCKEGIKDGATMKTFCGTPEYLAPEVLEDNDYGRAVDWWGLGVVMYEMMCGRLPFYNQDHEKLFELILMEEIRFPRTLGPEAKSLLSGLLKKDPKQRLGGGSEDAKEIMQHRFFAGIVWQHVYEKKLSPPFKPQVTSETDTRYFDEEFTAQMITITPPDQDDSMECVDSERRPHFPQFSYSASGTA
MAP3K3 (human), sequence (Q99759 whole entry, looked up): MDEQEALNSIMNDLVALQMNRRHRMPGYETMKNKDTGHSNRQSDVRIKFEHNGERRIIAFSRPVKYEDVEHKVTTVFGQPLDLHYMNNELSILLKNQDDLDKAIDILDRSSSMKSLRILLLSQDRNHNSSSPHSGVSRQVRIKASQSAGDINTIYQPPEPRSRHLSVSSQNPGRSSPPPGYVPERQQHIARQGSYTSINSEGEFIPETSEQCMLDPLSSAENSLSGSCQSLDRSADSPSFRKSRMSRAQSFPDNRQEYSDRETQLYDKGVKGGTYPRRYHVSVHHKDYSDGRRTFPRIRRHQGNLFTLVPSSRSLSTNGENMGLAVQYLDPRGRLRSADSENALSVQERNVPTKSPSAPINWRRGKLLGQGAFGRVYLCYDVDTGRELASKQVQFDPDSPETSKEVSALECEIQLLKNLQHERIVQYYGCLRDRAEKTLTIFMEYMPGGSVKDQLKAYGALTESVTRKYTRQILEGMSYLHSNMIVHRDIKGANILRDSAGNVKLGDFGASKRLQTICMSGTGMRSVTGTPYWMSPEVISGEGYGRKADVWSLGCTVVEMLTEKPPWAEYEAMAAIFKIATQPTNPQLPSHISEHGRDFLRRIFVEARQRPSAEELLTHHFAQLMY
PKN2 (human), sequence (Q16513 whole entry, looked up): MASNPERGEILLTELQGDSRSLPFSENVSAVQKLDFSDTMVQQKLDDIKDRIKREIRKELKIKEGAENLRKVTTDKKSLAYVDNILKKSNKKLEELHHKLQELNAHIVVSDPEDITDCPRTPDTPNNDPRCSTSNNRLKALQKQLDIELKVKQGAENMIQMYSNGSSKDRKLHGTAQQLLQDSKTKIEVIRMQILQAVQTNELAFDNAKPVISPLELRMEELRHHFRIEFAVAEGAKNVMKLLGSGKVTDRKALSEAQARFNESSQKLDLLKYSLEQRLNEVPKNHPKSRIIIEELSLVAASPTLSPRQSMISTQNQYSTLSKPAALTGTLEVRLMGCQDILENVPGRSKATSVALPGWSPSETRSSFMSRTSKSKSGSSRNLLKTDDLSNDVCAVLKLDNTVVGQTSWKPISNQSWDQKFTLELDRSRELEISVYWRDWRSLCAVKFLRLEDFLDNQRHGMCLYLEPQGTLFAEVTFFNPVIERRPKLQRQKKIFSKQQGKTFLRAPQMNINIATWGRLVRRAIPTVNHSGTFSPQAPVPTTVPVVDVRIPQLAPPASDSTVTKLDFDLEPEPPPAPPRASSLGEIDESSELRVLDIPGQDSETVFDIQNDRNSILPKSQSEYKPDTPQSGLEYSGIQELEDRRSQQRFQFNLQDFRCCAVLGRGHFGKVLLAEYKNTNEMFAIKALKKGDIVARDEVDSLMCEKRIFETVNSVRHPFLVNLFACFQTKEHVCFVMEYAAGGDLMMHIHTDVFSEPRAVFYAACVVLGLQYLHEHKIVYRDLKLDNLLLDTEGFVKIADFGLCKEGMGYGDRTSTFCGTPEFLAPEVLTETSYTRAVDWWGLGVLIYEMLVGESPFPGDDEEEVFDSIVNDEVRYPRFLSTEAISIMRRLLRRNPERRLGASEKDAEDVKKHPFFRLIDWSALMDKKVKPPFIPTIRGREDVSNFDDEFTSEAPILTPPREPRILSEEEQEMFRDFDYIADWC
CSNK1G3 (human), sequence (Q9Y6M4 whole entry, looked up): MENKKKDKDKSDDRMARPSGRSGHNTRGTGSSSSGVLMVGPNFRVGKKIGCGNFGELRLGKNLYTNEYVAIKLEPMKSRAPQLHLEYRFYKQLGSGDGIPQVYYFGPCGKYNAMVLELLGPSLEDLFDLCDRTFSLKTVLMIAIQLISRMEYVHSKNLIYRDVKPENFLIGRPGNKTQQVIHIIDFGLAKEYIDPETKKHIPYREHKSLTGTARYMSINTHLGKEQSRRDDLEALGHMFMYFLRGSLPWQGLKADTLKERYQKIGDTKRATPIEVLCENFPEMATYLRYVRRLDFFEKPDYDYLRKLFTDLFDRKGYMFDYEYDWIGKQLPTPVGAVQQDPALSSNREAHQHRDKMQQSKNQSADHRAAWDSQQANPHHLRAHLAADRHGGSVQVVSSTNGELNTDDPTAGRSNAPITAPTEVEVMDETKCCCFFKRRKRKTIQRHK
BLK (human), sequence (P51451 whole entry, looked up): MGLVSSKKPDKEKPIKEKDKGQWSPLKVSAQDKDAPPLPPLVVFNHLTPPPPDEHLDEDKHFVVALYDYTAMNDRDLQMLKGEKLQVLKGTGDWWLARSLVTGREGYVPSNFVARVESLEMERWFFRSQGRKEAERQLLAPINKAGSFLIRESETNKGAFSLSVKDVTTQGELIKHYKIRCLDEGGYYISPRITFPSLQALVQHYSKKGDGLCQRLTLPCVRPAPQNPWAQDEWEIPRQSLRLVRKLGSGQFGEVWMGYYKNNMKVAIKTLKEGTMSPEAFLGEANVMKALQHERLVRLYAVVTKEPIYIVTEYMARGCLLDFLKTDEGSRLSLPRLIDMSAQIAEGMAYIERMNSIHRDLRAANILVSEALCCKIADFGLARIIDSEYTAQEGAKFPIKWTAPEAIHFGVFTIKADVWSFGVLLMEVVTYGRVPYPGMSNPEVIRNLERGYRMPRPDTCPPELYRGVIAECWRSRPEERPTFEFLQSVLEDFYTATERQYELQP

Question: Which kinase still bound, per cent of control (MAP3K15 (human)) does the source give for `CNc1nc(Nc2ccc(C(=O)N3CCOCC3)cc2OC)ncc1Cl` here?
Answer: Its kinase still bound, per cent of control is 97%.

Question: What about the kinase still bound, per cent of control (ERBB4 (human)) of the same compound?
Answer: The kinase still bound, per cent of control was 100%.

Question: What about the kinase still bound, per cent of control (FLT3 (human)) of the same compound?
Answer: Its kinase still bound, per cent of control is 49% and 65%.

Question: And the kinase still bound, per cent of control (HIPK4 (human))?
Answer: Its kinase still bound, per cent of control is 100%.

Question: What about the kinase still bound, per cent of control (MAP2K5 (human)) of the same compound?
Answer: Its kinase still bound, per cent of control is 100%.

Question: What about the kinase still bound, per cent of control [1] of the same compound?
Answer: The kinase still bound, per cent of control was 100%.

Question: And the kinase still bound, per cent of control (ERN1 (human))?
Answer: Its kinase still bound, per cent of control is 88%.

Question: And the kinase still bound, per cent of control (MAP3K13 (human))?
Answer: Its kinase still bound, per cent of control is 100%.

Question: What about the residual activity (CDK16 (human)) of the same compound?
Answer: Its residual activity is 100%.

Question: And the kinase still bound, per cent of control [2]?
Answer: Its kinase still bound, per cent of control is 100%.

Question: What about the kinase still bound, per cent of control (PAK2 (human)) of the same compound?
Answer: The kinase still bound, per cent of control was 95%.

Question: And the residual activity (CDKL2 (human))?
Answer: Its residual activity is 100%.

Question: What about the kinase still bound, per cent of control (PRKAA1 (human)) of the same compound?
Answer: Its kinase still bound, per cent of control is 95%.

Question: What about the kinase still bound, per cent of control (STK17A (human)) of the same compound?
Answer: The kinase still bound, per cent of control was 53%.

Question: And the kinase still bound, per cent of control (MAP3K3 (human))?
Answer: The kinase still bound, per cent of control was 56%.

Question: And the kinase still bound, per cent of control (AKT1 (human))?
Answer: Its kinase still bound, per cent of control is 99%.

Question: What about the kinase still bound, per cent of control [3] of the same compound?
Answer: Its kinase still bound, per cent of control is 73%.

Question: What about the kinase still bound, per cent of control [4] of the same compound?
Answer: The kinase still bound, per cent of control was 97%.

Question: And the kinase still bound, per cent of control (PKN2 (human))?
Answer: The kinase still bound, per cent of control was 79%.

Question: And the kinase still bound, per cent of control (PRKD3 (human))?
Answer: The kinase still bound, per cent of control was 98%.

Question: And the kinase still bound, per cent of control (MAP2K6 (human))?
Answer: Its kinase still bound, per cent of control is 100%.

Question: What about the kinase still bound, per cent of control (STK38L (human)) of the same compound?
Answer: Its kinase still bound, per cent of control is 86%.

Question: And the kinase still bound, per cent of control [5]?
Answer: Its kinase still bound, per cent of control is 78%.

Question: And the kinase still bound, per cent of control (CSK (human))?
Answer: The kinase still bound, per cent of control was 100%.

Question: What about the kinase still bound, per cent of control (MET (human)) of the same compound?
Answer: The kinase still bound, per cent of control was 100%.

Question: And the kinase still bound, per cent of control (ADCK3 (human))?
Answer: The kinase still bound, per cent of control was 100%.

Question: What about the kinase still bound, per cent of control (LATS1 (human)) of the same compound?
Answer: Its kinase still bound, per cent of control is 100%.

Question: What about the kinase still bound, per cent of control (NUAK2 (human)) of the same compound?
Answer: Its kinase still bound, per cent of control is 100%.

Question: And the kinase still bound, per cent of control (BLK (human))?
Answer: The kinase still bound, per cent of control was 100%.

Question: And the residual activity (CDK5 (human))?
Answer: Its residual activity is 100%.

Question: What about the kinase still bound, per cent of control (CSNK1G3 (human)) of the same compound?
Answer: The kinase still bound, per cent of control was 100%.

Question: What about the kinase still bound, per cent of control [6] of the same compound?
Answer: Its kinase still bound, per cent of control is 100%.

Question: What about the residual activity (CDK2 (human)) of the same compound?
Answer: Its residual activity is 95%.

Question: And the kinase still bound, per cent of control (INSR (human))?
Answer: The kinase still bound, per cent of control was 82%.

Question: And the kinase still bound, per cent of control (TRPM6 (human))?
Answer: The kinase still bound, per cent of control was 87%.

Question: What about the kinase still bound, per cent of control (DCLK1 (human)) of the same compound?
Answer: Its kinase still bound, per cent of control is 100%.

Question: And the kinase still bound, per cent of control (PI4KB (human))?
Answer: The kinase still bound, per cent of control was 100%.

Question: What about the kinase still bound, per cent of control (PIP4K2C (human)) of the same compound?
Answer: The kinase still bound, per cent of control was 100%.

Question: And the kinase still bound, per cent of control (LATS2 (human))?
Answer: Its kinase still bound, per cent of control is 100%.
